The subject of assay [1] is Morganella morganii 2359. Put plainly: Protection of infected mice, subcutaneous application (ED50). It is filed as in vivo. As to conditions: infecting microorganism Morganella morg. 2359. The source says: (§1) Aufgrund dieser ß-Lactamase-inhibierenden Wirkung erhöhen die Verbindungen der vorliegenden Erfindung die Wirkung von β-Lactamantibiotika in vitro und in vivo, wie durch Vergleich der antibiotischen Wirkungen von Verbindungen der vorliegenden Erfindung und von β-Lactamantibiotika allein und in Kombination miteinander festgestellt werden kann. Beispielsweise liegen in vitro die MIC-Werte von 1:1 Kombinationen der erfindungsgemässen Verbindung der Formel (I), worin R1 Hydroxy und R2 Carboxy bedeuten, oder des Natriumsalzes davon mit Ampicillin, Cefsulodin (CGP7174/E) oder Cefotiam (CGP14221/E) gegen eine Reihe der obengenannten ß-Lactamase produzierenden Mikroorganismen signifikant niedriger als die MIC-Werte der Einzelverbindungen. In vivo, beispielsweise bei subcutaner Applikation an Mäusen, die mit ß-Lactamase produzierenden Mikroorganismen infiziert wurden, z.B. mit Escherichia coli 205 R^+ TEM oder Morganella morganii 2359, wurde eine signifikante Erniedrigung der ED50-Werte gegenüber denjenigen der Einzelkomponenten festgestellt. Einige Werte sind in der folgenden Tabelle zusammengestellt: […]

Assay [2] relates to Escherichia coli 205 R^+ TEM. The assay is described as above. It is filed as in vivo, Maus.
Excerpt: as §1

In the case of `CN(C)CCn1nnnc1SCC1=C(C(=O)O)N2C(=O)[C@@H](NC(=O)Cc3csc(N)n3)[C@H]2SC1` [B, Cefotiam], the ED50 in assay [1] (Morganella morganii, sc, Maus) was 75 mg/kg; in assay [2] (Escherichia coli, sc, read-out: s.c. ED50 (mg/kg, Maus)), 70 mg/kg.
With “(3R, 5R, 6R)-2,2-Dimethyl-6-hydroxymethylpenam-3-carbonsäure-1,1-dioxid-natriumsalz”, the “s.c. ED50 (mg/kg, Maus)” value in assay [1] turned out to be 100 mg/kg; in assay [2] (Maus, s.c., infecting microorganism Esch.coli: 205 RT), 100 mg/kg.

The values are drawn from patent EP0041047A2, “Dioxide compounds, process for their preparation and their use” (CIBA-GEIGY AG, priority 1980, dated 1981).
